Measurements as given in US11779586B2, “Compounds comprising tricyclic heterocyclic compounds” (Convalife (Shanghai) Co. Limited, priority 2015, dated 2023).
Where two headings read alike, the source gives them in different places.

Legend:
p110β/p110γ = assay: HTRF biochemical assay, class I PI3K isoforms (Reaction Biology Corp.): fold selectivity p110β/p110γ; details: fold form selectivity
Excerpt: (§1) Fold form selectivity inhibition data against class I PI3K isoforms, as determined using a HTRF biochemical assay conducted at Reaction Biology Corp., is listed below.

p110δ/p110γ = assay: HTRF biochemical assay, class I PI3K isoforms (Reaction Biology Corp.): fold selectivity p110δ/p110γ; details: fold form selectivity
p110β/p110α = assay: HTRF biochemical assay, class I PI3K isoforms (Reaction Biology Corp.): fold selectivity p110β/p110α; details: fold form selectivity
Excerpt: as §1

p110δ/p110α = assay: HTRF biochemical assay, class I PI3K isoforms (Reaction Biology Corp.): fold selectivity p110δ/p110α; details: fold form selectivity
[1] = Rodent pharmacokinetics: oral bioavailability and clearance, plasma PK; format: in vivo, mouse
Procedure: Formulation: 10% DMSO, 90% Saline Dosing: 10 mg/kg P.O. and 5 mg/kg I.V.
• Species=male mouse; • Strain=Balb/c; • 18 male mice were divided into two groups Group 1 (3 mg/kg; I.V.), Group 2 (10 mg/kg; P.O.) with each group comprising nine mice; • Blood samples (approximately 60 μL) were collected from retro orbital plexus under light isoflurane anesthesia such that the samples were obtained at pre-dose, 0.08, 0.25, 0.5, 1, 2, 4, 8 and 24 hr (I.V.) and pre-dose, 0.25, 0.5, 1, 2, 4, 6, 8 and 24 hr (P.O.); • The blood samples were collected from a set of three mice at each time point in labeled micro centrifuge tube containing K2EDTA as anticoagulant; • Plasma samples were separated by centrifugation of whole blood and stored below −70° C. until bioanalysis; • All samples were processed for analysis by protein precipitation using acetonitrile (ACN) and analyzed with fit for purpose LC/MS/MS method (LLOQ: 2.02 ng/mL); • Pharmacokinetic parameters were calculated using the non-compartmental analysis tool of Phoenix WinNonlin (Version 6.3). Formulation: Animals in Group 1 were administered intravenously with Example B solution formulation in 20% propylene glycol, 50% of PEG 400 and 30% of 20% βCD in water via tail vein at a dose of 3 mg/kg. Animals in Group 2 were administered with oral solution formulation of Example B in 20% propylene glycol, 50% of PEG 400 and 30% of 20% HPβCD in water at a dose of 10 mg/kg; Dosing: 10 mg/kg P.O. and 3 mg/kg I.V.
• Species=male mouse; • Strain=Balb/c; • 18 male mice were divided into two groups Group 1 (3 mg/kg; I.V.), Group 2 (10 mg/kg; P.O.) with each group comprising nine mice; • Blood samples (approximately 60 μL) were collected from retro orbital plexus under light isoflurane anesthesia such that the samples were obtained at pre-dose, 0.08, 0.25, 0.5, 1, 2, 4, 8 and 24 hr (I.V.) and pre-dose, 0.25, 0.5, 1, 2, 4, 6, 8 and 24 hr (P.O.); • The blood samples were collected from a set of three mice at each time point in labeled micro centrifuge tube containing K2EDTA as anticoagulant; • Plasma samples were separated by centrifugation of whole blood and stored below −70° C. until bioanalysis; • All samples were processed for analysis by protein precipitation using acetonitrile (ACN) and analyzed with fit for purpose LC/MS/MS method (LLOQ: 2.47 ng/mL); • Pharmacokinetic parameters were calculated using the non-compartmental analysis tool of Phoenix WinNonlin (Version 6.3). Formulation: Animals in Group 1 were administered intravenously with Example G solution formulation in 5% NMP, 5% solutol HS-15 in 90% HPβCD solution (20% HPβCD in RO water) at 3 mg/kg dose. Animals in Group 2 were administered orally with 10 mg/kg solution formulation of Example G in 5% NMP, 5% solutol HS-15 in 90% HPβCD solution (20% HPβCD in RO water) Dosing: 10 mg/kg P.O. and 3 mg/kg I.V.
• Species=male mouse; • Strain=CD1; • n=3 male mice per time point per route; • Terminal blood sampling at 8 time points (5 min, 10 min, 0.5 hr, 1 hr, 3 hr, 6 hr, 8 hr and, 24 hr); • Collection of plasma, bio-analysis and report of pharmacokinetic parameters. Formulation: 10% DMSO, 90% Saline Dosing: 10 mg/kg P.O. and 5 mg/kg I.V.

[2] = in vivo, iv, male mouse, I.V. (5 mg/kg CD1: Example A, comparative; 3 mg/kg Balb/c: Examples B, G), mesylate salt, read-out: Clearance

SMILES | Fold IC50 p110β/p110γ (p110β/p110γ) | Fold IC50 p110δ/p110γ (p110δ/p110γ) | Fold IC50 p110β/p110α (p110β/p110α) | Fold IC50 p110δ/p110α (p110δ/p110α) | F ([1]; male, CD1, mouse, in vivo) | clearance ([1]; male, mouse, in vivo, iv) | clearance [1, 2] | F ([1]; male Balb/c mouse, PO 10 mg/kg vs IV 3 mg/kg, 20% propylene glycol, 50% PEG 400, 30% of 20% HPβCD in water, mesylate salt) | clearance ([1]; male, mouse, in vivo, summary table, mice, mesylate salts, read-out: Clearance) | F ([1]; male Balb/c mouse, PO 10 mg/kg vs IV 3 mg/kg, 5% NMP, 5% solutol HS-15 in 90% HPβCD solution, mesylate salt)
c1cc(-c2nc(N3CCOCC3)c3oc4ncc(CN5C[C@@H]6C[C@H]5CO6)cc4c3n2)c2cc[nH]c2c1 [Example A, 4-(1H-Indol-4-yl)-6-(morpholin-4-yl)-12-[(1S,4S)-2-oxa-5-azabicyclo[2.2.1]heptan-5-ylmethyl]-8-oxa-3,5,10-triazatricyclo[7.4.0.0^2,7]trideca-1(13),2(7),3,5,9,11-hexaene] | – | – | – | – | 73.77% | 21 mL/min/kg | – | – | – | –
c1cc(-c2nc(N3CCOCC3)c3oc4ncc(CN5CCC6(CC5)COC6)cc4c3n2)c2cc[nH]c2c1 [Example B, 4-(1H-Indol-4-yl)-6-(morpholin-4-yl)-12-{2-oxa-7-azaspiro[3.5]nonan-7-ylmethyl}-8-oxa-3,5,10-triazatricyclo[7.4.0.0^2,7]trideca-1(13),2(7),3,5,9,11-hexaene] | ** (** = >50×) | ** (** = >50×) | ** (** = >50×) | ** (** = >50×) | – | – | 33 mL/min/kg | 74% | 33 mL/min/kg | –
c1cc(-c2nc(N3CCOCC3)c3oc4ncc(CN5CCC56COC6)cc4c3n2)c2cc[nH]c2c1 [Example G, 4-(1H-indol-4-yl)-6-(morpholin-4-yl)-12-{6-oxa-1-azaspiro[3.3]heptan-1-ylmethyl}-8-oxa-3,5,10-triazatricyclo[7.4.0.0^2,7]trideca-1(13),2(7),3,5,9,11-hexaene] | ** (** = >50×) | ** (** = >50×) | * (* = ≥10× ≥ 50×) | ** (** = >50×) | – | – | 26 mL/min/kg | – | – | 30%

More lines, main results first:

Fold IC50 p110β/p110γ (p110β/p110γ) | Fold IC50 p110δ/p110γ (p110δ/p110γ) | Fold IC50 p110β/p110α (p110β/p110α) | Fold IC50 p110δ/p110α (p110δ/p110α) | F ([1]; male, CD1, mouse, in vivo) | clearance ([1]; male, mouse, in vivo, iv) | SMILES | clearance [1, 2] | F ([1]; male Balb/c mouse, PO 10 mg/kg vs IV 3 mg/kg, 20% propylene glycol, 50% PEG 400, 30% of 20% HPβCD in water, mesylate salt) | clearance ([1]; male, mouse, in vivo, summary table, mice, mesylate salts, read-out: Clearance) | F ([1]; male Balb/c mouse, PO 10 mg/kg vs IV 3 mg/kg, 5% NMP, 5% solutol HS-15 in 90% HPβCD solution, mesylate salt)
** (** = >50×) | ** (** = >50×) | * (* = ≥10× ≥ 50×) | ** (** = >50×) | – | – | c1cc(-c2nc(N3CCOCC3)c3oc4ncc(CN5CC6CC[C@H](C5)O6)cc4c3n2)c2cc[nH]c2c1 (stereo in doubt) [Example C, 4-(1H-Indol-4-yl)-6-(morpholin-4-yl)-12-{8-oxa-3-azabicyclo[3.2.1]octan-3-ylmethyl}-8-oxa-3,5,10-triazatricyclo[7.4.0.0^2,7]trideca-1(13),2(7),3,5,9,11-hexaene] | – | – | – | –
** (** = >50×) | ** (** = >50×) | ** (** = >50×) | ** (** = >50×) | – | – | CN1CCC2(CCN(Cc3cnc4oc5c(N6CCOCC6)nc(-c6cccc7[nH]ccc67)nc5c4c3)CC2)C1 [Example D, 4-(1H-Indol-4-yl)-12-({2-methyl-2,8-diazaspiro[4.5]decan-8-yl}methyl)-6-(morpholin-4-yl)-8-oxa-3,5,10-triazatricyclo[7.4.0.0^2,7]trideca-1(13),2(7),3,5,9,11-hexaene] | – | – | – | –
** (** = >50×) | ** (** = >50×) | ** (** = >50×) | ** (** = >50×) | – | – | CN1CCC2(CCN(Cc3cnc4oc5c(N6CCOCC6)nc(-c6cccc7[nH]ccc67)nc5c4c3)C2)C1 (stereo not drawn) [Example E, 4-(1H-Indol-4-yl)-12-({7-methyl-2,7-diazaspiro[4.4]nonan-2-yl}methyl)-6-(morpholin-4-yl)-8-oxa-3,5,10-triazatricyclo[7.4.0.0^2,7]trideca-1(13),2(7),3,5,9,11-hexaene] | – | – | – | –
